The molecules below were run against T1, human BTK (Homo sapiens, UniProt Q06187) (assay: BTK inhibition assay: BTK-mediated phosphorylation of FAM-labeled substrate 5-FAM-EEPLYWSFPAKKK-NH2 (Caliper LC-3000)). Settings: pIC50 = -log(IC50), IC50 molar; residues 382 to 659 of human BTK; incubated at room temperature for 60 minutes; larger values represent higher potency.
T1 construct: GST (Glutathione-S-Transferase) (cleaved yes); made in house; host or cells: Spodoptera frugiperda Sf9 cells (baculovirus, Bac-to-Bac)
Assay type: biochemical
Text: The activity of compounds as BTK inhibitors may be determined by a variety of methods, including in vitro and in vivo methods.
This construct engineers an in-frame translational fusion with the Glutathione-S-Transferase (GST) protein for use in affinity purification. The fusion protein derived from this construct contains a protease recognition sequence to liberate the BTK from the GST affinity tag. High-titer baculoviral stocks, generated using the Bac-to-Bac® system (Invitrogen), are used to express the recombinant protein in Spodoptera frugiperda Sf9 cells in 10 L Wave bags. Recombinant proteins are isolated from cellular extracts by passage over Glutathione Sepharose 4B (GE Healthcare) and the BTK moiety is released from the GST affinity tag by treatment with PreScission protease. The BTK recombinant protein is further purified by size exclusion chromatography (HiLoad 16/60 Superdex 200, GE Healthcare) in a buffer containing 20 mM Hepes (pH 7.4), 50 mM NaCl, 10 mM MgCl2, 0.25 mM TCEP and 0.1 mM EDTA. The purity of the fractions is assessed by SDS PAGE and the peak protein fractions are pooled and concentrated using Amicon Ultra-15 Centrifugal Filter Devices (Millipore).
The inhibitory properties of compounds relative to BTK is determined using a black 384-well-plate format in a buffer which contains 50 mM Hepes, 10 mM NaCl, 10 mM MgCl2, 0.2 mM EDTA, 0.01% Brij35®, 1 mM DTT, and 0.1 mg/mL BSA at pH 7.3. The test compound is prepared in DMSO using 2-fold serial dilutions for 11 data points, which are added to the buffer so that each dilution contains 3% DMSO. […] The reaction mixtures are incubated at room temperature for 60 minutes and then quenched by adding 25 μL of 50 mM EDTA. To quantify the fluorescent-labeled substrate and product following reaction, the test plate is loaded on a Caliper LC-3000, which measures percent of conversion by microfluidic-based separation.
The compounds were tested in accordance with the assay described on page 34 of the specification.

T1 sequence (Q06187 382-659): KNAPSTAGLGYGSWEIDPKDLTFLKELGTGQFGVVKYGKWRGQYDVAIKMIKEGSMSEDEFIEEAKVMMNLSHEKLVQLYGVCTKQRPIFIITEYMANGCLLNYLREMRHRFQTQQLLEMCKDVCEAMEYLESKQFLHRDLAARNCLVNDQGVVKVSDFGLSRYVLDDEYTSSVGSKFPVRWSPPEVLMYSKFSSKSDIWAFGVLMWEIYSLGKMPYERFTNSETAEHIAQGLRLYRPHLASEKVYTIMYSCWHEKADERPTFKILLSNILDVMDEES

Row | SMILES | IC50 [nM]
1 | Cc1ccc2c(N)c(C(N)=O)nnc2c1-c1cnc2cc[nH]c2c1 [Example 21, 4-amino-7-methyl-8-(1H-pyrrolo[3,2-b]pyridin-6-yl)cinnoline-3-carboxamide] | 126
2 | CC1CCC(Nc2nc3ccc(-c4cccc5c(N)c(C(N)=O)nnc45)cc3[nH]2)CC1 (stereo not drawn) [Example 91, 4-amino-8-(2-(4-methylcyclohexylamino)-1H-benzo[d]imidazol-6-yl)cinnoline-3-carboxamide] | 79.4
3 | Cc1cc2cn[nH]c2cc1-c1cc(N2CCC(O)CC2)cc2c(N)c(C(N)=O)nnc12 [Example 138, 4-amino-6-(4-hydroxypiperidin-1-yl)-8-(5-methyl-1H-indazol-6-yl)cinnoline-3-carboxamide] | 12.6
4 | Cn1ccc2cc(-c3cccc4c(N)c(C(N)=O)nnc34)ccc21 [Example 5, 4-amino-8-(1-methyl-1H-indol-5-yl)cinnoline-3-carboxamide] | 3980
5 | COc1ccc2c(N)c(C(N)=O)nnc2c1-c1ccc2cn[nH]c2c1 [Example 41, 4-amino-8-(1H-indazol-6-yl)-7-methoxycinnoline-3-carboxamide] | 25.1
6 | Cc1cc2cnn(C)c2cc1-c1cccc2c(N)c(C(N)=O)nnc12 [Example 44, 4-amino-8-(1,5-dimethyl-1H-indazol-6-yl)cinnoline-3-carboxamide] | 501
7 | COc1ccc(-c2cc3[nH]ncc3cc2C)c2nnc(C(N)=O)c(N)c12 [Example 39, 4-amino-5-methoxy-8-(5-methyl-1H-indazol-6-yl)cinnoline-3-carboxamide] | 7.94
8 | NC(=O)c1nnc2c(-c3ccc4[nH]ccc4c3)cccc2c1N [Example 27, 4-amino-8-(1H-indol-5-yl)cinnoline-3-carboxamide] | 1580
9 | NC(=O)c1nnc2c(-c3ccc4c(c3)CNC4=O)cccc2c1N [Example 122] | 20
10 | CC(C)(C)n1cnc2cc(-c3cccc4c(N)c(C(N)=O)nnc34)ccc21 [Example 19, 4-amino-8-(1-tert-butyl-1H-benzo[d]imidazol-5-yl)cinnoline-3-carboxamide] | 15800
11 | CCc1ccc2c(N)c(C(N)=O)nnc2c1-c1ccc2[nH]ncc2c1 [Example 62, 4-amino-7-ethyl-8-(1H-indazol-5-yl)cinnoline-3-carboxamide] | 5.01
12 | Cc1ccc2c(N)c(C(N)=O)nnc2c1-c1ccc2c(F)n[nH]c2c1 [Example 100, 4-amino-8-(3-fluoro-1H-indazol-6-yl)-7-methylcinnoline-3-carboxamide] | 25.1
13 | CN1Cc2cc(-c3cccc4c(N)c(C(N)=O)nnc34)ccc2C1=O [Example 123, 4-amino-8-(2-methyl-1-oxoisoindolin-5-yl)cinnoline-3-carboxamide] | 200
14 | Cc1ccc2c(N)c(C(N)=O)nnc2c1-c1cnc2[nH]ncc2c1 [Example 47, 4-amino-7-methyl-8-(1H-pyrazolo[3,4-b]pyridin-5-yl)cinnoline-3-carboxamide] | 79.4
15 | Cc1ccc2c(N)c(C(N)=O)nnc2c1-c1ccc2ncn(CCO)c2c1 [Example 134, 4-amino-8-(1-(2-hydroxyethyl)-1H-benzo[d]imidazol-6-yl)-7-methylcinnoline-3-carboxamide] | 794
16 | NC(=O)c1nnc2c(-c3ccc4nc(-c5ccsc5)[nH]c4c3)cccc2c1N [Example 73, 4-amino-8-(2-(thiophen-3-yl)-1H-benzo[d]imidazol-6-yl)cinnoline-3-carboxamide] | 158
17 | CCn1cnc2ccc(-c3c(C)ccc4c(N)c(C(N)=O)nnc34)cc21 [Example 131, 4-amino-8-(1-ethyl-1H-benzo[d]imidazol-6-yl)-7-methylcinnoline-3-carboxamide] | 100
18 | NC(=O)c1nnc2c(-c3ccc4nc(NCc5cccs5)[nH]c4c3)cccc2c1N [Example 88, 4-amino-8-(2-(thiophen-2-ylmethylamino)-1H-benzo[d]imidazol-6-yl)cinnoline-3-carboxamide] | 10
19 | Cn1ncc2cc(-c3c(C(F)(F)F)ccc4c(N)c(C(N)=O)nnc34)ccc21 [Example 35, 4-amino-8-(1-methyl-1H-indazol-5-yl)-7-(trifluoromethyl)cinnoline-3-carboxamide] | 79.4
20 | COc1cc2cn[nH]c2cc1-c1cccc2c(N)c(C(N)=O)nnc12 [Example 110, 4-amino-8-(5-methoxy-1H-indazol-6-yl)cinnoline-3-carboxamide] | 3.98
21 | COc1ccc2c(N)c(C(N)=O)nnc2c1-c1ccc2nc[nH]c2c1 [Example 46, 4-amino-8-(1H-benzo[d]imidazol-6-yl)-7-methoxycinnoline-3-carboxamide] | 63.1
22 | COc1ccc(-c2nc3ccc(-c4cccc5c(N)c(C(N)=O)nnc45)cc3[nH]2)cc1 [Example 74, 4-amino-8-(2-(4-methoxyphenyl)-1H-benzo[d]imidazol-6-yl)cinnoline-3-carboxamide] | 79.4

More lines, in order of falling IC50, values ahead:

Row | IC50 [nM] | SMILES
23 | 316 | NC(=O)c1nnc2c(-c3cnc4cc[nH]c4c3)cccc2c1N [Example 3, 4-amino-8-(1H-pyrrolo[3,2-b]pyridin-6-yl)cinnoline-3-carboxamide]
24 | 251 | Cc1ccc2c(N)c(C(N)=O)nnc2c1-c1ccc2[nH]ccc2c1 [Example 24, 4-amino-8-(1H-indol-5-yl)-7-methylcinnoline-3-carboxamide]
25 | 126 | NC(=O)c1nnc2c(-c3ccc4nc(-c5cn6ccccc6n5)[nH]c4c3)cccc2c1N [Example 75, 4-amino-8-(2-(imidazo[1,2-a]pyridin-2-yl)-1H-benzo[d]imidazol-6-yl)cinnoline-3-carboxamide]
26 | 63.1 | Cc1ccc(CNc2nc3ccc(-c4cccc5c(N)c(C(N)=O)nnc45)cc3[nH]2)cc1 [Example 95, 4-amino-8-(2-(4-methylbenzylamino)-1H-benzo[d]imidazol-6-yl)cinnoline-3-carboxamide]
27 | 63.1 | Cc1ccc2c(N)c(C(N)=O)nnc2c1-c1ccc2c(C)n[nH]c2c1 [Example 99, 4-amino-7-methyl-8-(3-methyl-1H-indazol-6-yl)cinnoline-3-carboxamide]
28 | 50.1 | Cc1cc(C)c2c(N)c(C(N)=O)nnc2c1-c1ccc2cn[nH]c2c1 [Example 53, 4-amino-8-(1H-indazol-6-yl)-5,7-dimethylcinnoline-3-carboxamide]
29 | 25.1 | Cc1ccc2c(N)c(C(N)=O)nnc2c1-c1ccc2nc(-c3ccc(F)cc3)[nH]c2c1 [Example 120, 4-amino-8-(2-(4-fluorophenyl)-1H-benzo[d]imidazol-6-yl)-7-methylcinnoline-3-carboxamide]
30 | 15.8 | Cc1ccc2c(N)c(C(N)=O)nnc2c1-c1ccc2nc[nH]c2c1 [Example 22, 4-amino-8-(1H-benzo[d]imidazol-6-yl)-7-methylcinnoline-3-carboxamide]
31 | 10 | CCc1ccc2c(N)c(C(N)=O)nnc2c1-c1ccc2cn[nH]c2c1 [Example 61, 4-amino-7-ethyl-8-(1H-indazol-6-yl)cinnoline-3-carboxamide]
32 | 7.94 | Cc1cc(F)c2c(N)c(C(N)=O)nnc2c1-c1ccc2[nH]ncc2c1 [Example 60, 4-amino-5-fluoro-8-(1H-indazol-5-yl)-7-methylcinnoline-3-carboxamide]
33 | 3.98 | COc1cc2[nH]ncc2cc1-c1cccc2c(N)c(C(N)=O)nnc12 [Example 103, 4-amino-8-(6-methoxy-1H-indazol-5-yl)cinnoline-3-carboxamide]
